Entries after “also recorded” stand apart in the source; their conditions may differ.
Legend:
[1] = test system: primary cardiomyocytes isolated from healthy Sprague Dawley rats; assay: Unloaded shortening contractility of healthy isolated cardiomyocytes; type: cell-based; conditions: healthy rat cardiomyocytes
Protocol: FIG. 13: Dose-dependent modest improvement in contraction and relaxation kinetics during unloaded shortening upon VASH inhibition in primary cardiomyocytes isolated from healthy Sprague Dawley rats. A) Resting sarcomere length, B) fractional shortening, C) contraction time and D) relaxation time in healthy isolated rat cardiomyocytes. n=50-60 myocytes per group from N=3 Sprague Dawley rats. One-way ANOVA.
Contractility was measured in a custom-fabricated cell chamber (IonOptix) mounted on an LSM Zeiss 880 inverted confocal microscope using either a 40 or 63× oil 1.4 numerical aperture objective and transmitted light camera (IonOptix MyoCam-S). Experiments were conducted at room temperature and field stimulation was provided at 1.0 Hz with a cell stimulator (MyoPacer, IonOptix). After 10-30 seconds of pacing to achieve steady state, five traces were recorded and analyzed. Sarcomere length was measured optically by Fourier transform analysis (IonWizard, IonOptix).

[2] = test system: human adult cardiomyocytes; assay: Western blot of tubulin detyrosination and acetylation in human adult cardiomyocytes; type: cell-based
Protocol: FIG. 33: human adult cardiomyocytes are treated with vehicle or SVC-01 (inhibitor). Protein lysates are analysed by western blot to evaluate the level of tubulin detyrosination and acetylation.
Specificity of SVC-01 was assayed using both human VASH1 and VASH2 recombinant enzymes. […] Finally, to ensure that regulation of other genes involved in the detyrosination-tyrosination cycle is not affected, we analysed gene expression of all relevant and associated genes following treatment with SVC-02 in adult human cardiomyocytes. We found no alteration of VASH1, VASH2, MATCAP, TTL or SVBP gene expression between vehicle control and SVC-02 treated cells (FIG. 34).

[3] = test system: primary cardiomyocytes isolated from ZSF1-Lean or ZSF1 Obese rats; assay: Nanoindentation transverse stiffness; type: cell-based, rat
Description: FIG. 17: Reduced transverse stiffness upon VASH inhibition or TTL overexpression in primary cardiomyocytes isolated from ZSF1-Lean or ZSF1 Obese rats. A) Stiffness (elastic modulus) plotted as a function of nanoindentation velocity in ZSF1-Lean and B) ZSF1-Obese myocytes. C) Quantification of Emin (elastic stiffness), Emax (stiffness at maximal velocity of indentation) and D) DeltaE (indicator of viscoelasticity) in ZSF1-Lean and Obese cardiomyocytes.
Mechanical properties at the microscopic scale were measured using nano-indentation (Piuma; Optics11, Amsterdam, The Netherlands) equipped with a dynamic mechanical analysis package (DMA). Freshly isolated cardiomyocytes were attached to glass-bottom dishes coated with MyoTak (IonOptix) in NT solution at 1 mM Ca2+. A spherical indentation probe with a radius of 4.5 μm and a stiffness of 0.1 N/m was used to indent the myocytes to a depth of 1-2 μm and the probe was then oscillated in a sinusoidal pattern at a frequency of 0.05, 0.1, 0.5, 1, 2, 5, 10, 20 and 50 Hz and an amplitude of 1 μm. The Piuma Data Viewer version 2.0 was used to convert DMA indentation depth and cantilever deflection into E′ and E″ and the magnitude of the elastic modulus was determined by E^2=E′^2+E″^2 A Poisson's ratio (n) of 0.5 was assumed and the average of E in each experimental condition was determined as a function of indentation speed. […]

Sprague Dawley rats = assay: Myocardial tubulin detyrosination after IV injection, western blot; type: in vivo, rat; conditions: single injection IV, 8 weeks old Sprague Dawley rats
Description: B) Quantification of detyrosination levels (D1/alpha-tubulin ratio) in vehicle (n=4) and VASHi-treated rats (n=3).
For efficacy testing we presented SVC_01 to primary cardiomyocytes isolated from Sprague Dawley rats. […] Next, we performed functional studies by measuring key cardiomyocytes parameters including resting, fractional shortening, contraction time and relaxation time. […] The ZSF1 rat model is a hybrid rat obtained by a cross between a ZDF female and an SHHF male rat. This model is an established HFpEF rat model. Obese ZSF1 (O—ZSF1) hybrid rats are compound heterozygote with two different mutated alleles coding defective leptin receptor, resulting in loss of the receptor function. Thus, these animals have increased food intake and develop pronounced features of obesity, diabetes, and resultant HFpEF. […] We performed a western blot analysis from myocardial tissue prepared from Wistar Kyoto (WKY), ZSF1 lean and ZSF1 obese rats (FIG. 14). In line with previously published data of the role of microtubule densification and tubulin detyrosination, we found an increase in both total tubulin as well as detyrosinated tubulin in myocardial tissue of ZSF1-obese rats compared to the lean and WKY controls. […] Similar results were observed by assessment of the transverse stiffness. […]

Compound | contraction and relaxation times [1] | level of tubulin acetylation [2] | level of tubulin detyrosination [2] | transverse viscoelastic stiffness [3] | detyrosinated tubulin in myocardial tissue (Sprague Dawley rats)
O=C(O)CCC[C@H](NC(=O)[C@H]1O[C@@H]1C(=O)C[C@@H](Cc1ccc(OCc2ccccc2)cc1)C(=O)O)C(=O)NCCc1ccccc1 [SVC_01] | dose-dependent and statistically significant improvements | did not affect the level of tubulin acetylation; also recorded: remained unchanged | significantly reduces the level of tubulin detyrosination; also recorded: significant reduction of tubulin detyrosination | viscoelastic stiffness is reduced | –
CCOC(=O)[C@H](Cc1ccc(OCC)cc1)NC(=O)[C@H]1O[C@@H]1C(=O)N[C@@H](Cc1ccc(OCC)cc1)C(=O)OCC [SVC_02] | – | – | – | – | efficient reduction in detyrosinated tubulin

Source: patent publication US20260199284A1, “SPECIFIC VASH COMPOUNDS (SVC) INHIBITORS FOR HEART DISEASES” (MT ACT, priority 2023, published 2026)
